From patent publication US12605423B2, “Peptide inhibitors targeting methyltransfer mechanism of SARS-CoV-2” (United Arab Emirates University, priority 2021, dated 2026)
≈ marks a conversion by molar mass, not a printed value. Entries after “also recorded” stand apart in the source; their conditions may differ.

Columns and labels:
[1] = in vitro; details: human, Cytotoxic Concentration (CC50), Caco-2 cells
[2] = tested on: IL-6; type: cell-based; details: 10 μM peptide, versus PBS control; for IL-6 induction: NCIH1792 (H1792) human lung cells

Molecule	CC50 [1]	stimulation of the intrinsic secretion of IL-6 ([2]; NCIH1792 (H1792) cells)	IL-6 induction [2]
CC[C@H](C)[C@H](NC(=O)[C@H](Cc1c[nH]cn1)NC(=O)[C@H](CS)NC(=O)[C@H](CCCNC(=N)N)NC(=O)[C@H](CS)NC(=O)[C@H](Cc1ccc(O)cc1)NC(=O)[C@H](CC(C)C)NC(=O)[C@H](CS)NC(=O)[C@H](CS)NC(=O)[C@H](CO)NC(=O)[C@H](C)NC(=O)CNC(=O)CNC(=O)[C@H](Cc1ccccc1)NC(=O)CNC(=O)[C@H](CO)NC(=O)CNC(=O)[C@H](CCCNC(=N)N)NC(=O)[C@H](CCCNC(=N)N)NC(=O)[C@H](CCCNC(=N)N)NC(=O)[C@H](CCC(N)=O)NC(=O)[C@H](CCCNC(=N)N)NC(=O)[C@H](CCCNC(=N)N)NC(=O)[C@H](CCCCN)NC(=O)[C@H](CCCCN)NC(=O)[C@H](CCCNC(=N)N)NC(=O)CNC(=O)[C@H](Cc1ccc(O)cc1)NC(C)=O)C(=O)N[C@@H](CC(=O)O)C(=O)N[C@@H](Cc1c[nH]cn1)C(=O)N1CCC[C@H]1C(=O)N[C@@H](CC(N)=O)C(=O)N1CCC[C@H]1C(=O)N[C@@H](CCCCN)C(=O)NCC(=O)N[C@@H](Cc1ccccc1)C(=O)N[C@@H](CS)C(=O)N[C@@H](CC(=O)O)C(=O)N[C@@H](CC(C)C)C(=O)N[C@@H](CCCCN)C(=O)NCC(=O)N[C@@H](CCCCN)C(=O)N[C@@H](Cc1ccc(O)cc1)C(N)=O [Peptide P1]	11 µg/mL (≈ 2.19 µM)	more than 4 fold	strongly increased IL-6 secretion; also recorded: profound induction of IL-6 secretion
YGRKKRRQRRRGSG [TAT sequence, reference compound]			no increase in IL-6
